# From patent US12162857B2, “Antiviral compounds” (priority 2022, dated 2024)
# Test system: HMPV A2 TN/94-49
# Assay: HMPV antiviral assay: LLC-MK2 cells, ATP-Lite readout
# Format: cell-based
# Details: LLC-MK2, 168 h, MOI 0.005, 7 days incubation
# Description: In vitro HMPV antiviral activity was evaluated using the clinical isolate A2 strain TN 94-49 and LLC-MK2 cells (ATCC #CCL-7), an immortalized kidney epithelial cell line from Macaca mulatta. Compounds were resuspended in dimethyl sulfoxide (DMSO) at 10 mM, serially diluted and added to a 384-well source plate. Subsequently, the compounds were diluted and transferred onto 384-well assay plates using the Echo-650 automated liquid handling system (Beckman Coulter, Indiana). The test compounds were assessed in duplicate at a top concentration of 2 μM followed by 2.5-fold serial dilutions to give a total of 10 concentration points. DMSO control wells were also included on the assay plates and were either infected or not, acting as positive and negative controls. A2 TN 94-49 virus infections were performed in-suspension with LLC-MK2 cells. The cells were washed twice with PBS and removed from the cell-culture flask with 0.25% trypsin-EDTA (Thermo Fisher Scientific, MA). The trypsin-EDTA was inactivated by resuspending in 2% fetal bovine serum (FBS) and OptiMEM (ThermoFisher Scientific, MA) containing 1% penicillin-streptomycin. Cells were pelleted by centrifuging for 5 minutes at 800 rpm, the supernatant was removed, and cells were re-suspended and washed in PBS plus 100 μg/mL CaCl2). This step was performed twice. Cells were then re-suspended in serum-free (SF)-OptiMEM containing 4 μg/mL TPCK-Trypsin (Sigma Aldrich, MO), 1% penicillin-streptomycin (ThermoFisher Scientific, MA) and 100 μg/mL CaCl2). Cells were counted and seeded at a density of 5,000 cells/well, 12.5 μL/well. Virus infections were done at a multiplicity of infection (MOI) of 0.005 with 12.5 μL added per well. Virus infections were performed in infection media which contained SF-OptiMEM, 100 μg/mL CaCl2) and 1% penicillin-streptomycin. HMPV viral stocks are suspended in infection media+5% glycerol, thus an equal volume of infection media+5% glycerol was added to uninfected wells to equalize the final % glycerol across all wells of the assay plate. The final concentration of TPCK-trypsin was 2 μg/mL. The assay plates were incubated at 37° C., 5% CO2 for 7 days. After 7 days incubation, 12.5 μL of ATP-Lite (PerkinElmer, MA) was added to each well and the raw luminescence values were determined using the Envision 2104 (Perkin Elmer, MA). The average of the raw luminescence values for the cells and virus only positive control wells was subtracted from all conditions tested and the percent cell health was determined by dividing these values by the average of the cells only negative control wells. EC50 values were then calculated by non-linear regression using a four-parameter curve logistic equation. The curve fit model employed was XLFit Dose Response One Site Model 200: y=(A+(B/(1+((x/C)^D)))), where A is the minimum y value, B is the maximum y value, C is the log EC50 value, and D is the slope factor. […] EC50 ranges are as follows: A<1 μM; B>1 μM.
row,Structure (SMILES),EC50
1,COc1cc(C(=O)NC[C@@](O)(c2cccc(F)c2)c2cc(C(C)(C)O)c(F)c(-c3cc(Cl)c(F)cc3F)n2)cc2cn(C(F)F)nc12 [Example 92],< 1000 nM
2,COc1cc(C(=O)NC[C@@](O)(c2ccccc2)c2cc(C(C)(C)O)c(F)c(-c3ccc(F)c(Cl)c3Cl)n2)cc2cn(C(F)F)nc12 [Example 70],< 1000 nM
3,COc1cc(C(=O)NC[C@@](O)(c2ccccc2)c2cc(C(C)(C)O)c(Cl)c(-c3cccc(Cl)c3Cl)n2)cc2cn(C3CC3)nc12 [Example 140],> 1000 nM
4,COc1cc(C(=O)NC[C@@](O)(c2cccc(F)c2)c2cc(C(C)(C)O)c(F)c(-c3ccc(F)c(Cl)c3Cl)n2)cc2cn(C3CC3)nc12 [Example 103],< 1000 nM
5,CC(C)(O)c1cc(-c2cccc(Cl)c2Cl)nc([C@@](O)(CNC(=O)c2cc(Cl)c3nn(C4CC4)cc3c2)c2ccccc2)c1 [Example 149],< 1000 nM
6,COc1cc(C(=O)NC[C@@](O)(c2cccc(F)c2)c2cc(C(C)(C)O)c(F)c(-c3cccc(Cl)c3Cl)n2)cc2cn(C3CC3)nc12 [Example 98],< 1000 nM
7,CC(C)(O)c1cc([C@@](O)(CNC(=O)c2cc(Cl)c3nn(C4CC4)cc3c2)c2ccccc2)nc(-c2cccc(Cl)c2Cl)c1F [Example 82],< 1000 nM
8,COc1cc(C(=O)NC[C@@](O)(c2cccc(F)c2)c2cc(C(C)(C)O)c(F)c(-c3cc(F)c(F)cc3F)n2)cc2cn(C(F)F)nc12 [Example 94],< 1000 nM
9,COc1cc(C(=O)NC[C@@](O)(c2cccc(F)c2)c2cc(C(C)(C)O)c(F)c(-c3cccc(Cl)c3Cl)n2)cc2cc(C3CC3)nn12 [Example 101],< 1000 nM
10,CC(C)(O)c1cc([C@@](O)(CNC(=O)c2cc(OC3CC3)c3nn(C4CC4)cc3c2)C2CC2)nc(-c2cc(Cl)c(F)cc2F)c1F [Example 55],< 1000 nM
11,COc1cc(C(=O)NC[C@@](O)(c2cccc(F)c2)c2cc(C(C)(C)O)c(F)c(-c3ccc4c(c3Cl)OC(F)(F)O4)n2)cc2cc(C3CC3)nn12 [Example 112],< 1000 nM
12,COc1cc(C(=O)NC[C@@](O)(c2cccc(F)c2)c2cc(C(C)(C)O)c(F)c(-c3ccc(F)c(Cl)c3Cl)n2)cc2cn(C(F)F)nc12 [Example 104],< 1000 nM
13,COc1cc(C(=O)NC[C@@](O)(c2ccccc2)c2cc(C(C)(C)O)c(Cl)c(-c3cc(Cl)c(F)cc3F)n2)cc2cn(C(F)F)nc12 [Example 134],> 1000 nM
14,COc1cc(C(=O)NC[C@@](O)(c2ccccc2)c2cc(C(C)(C)O)c(F)c(-c3cc(Cl)c(F)cc3F)n2)cc2cn(C3(F)CC3)nc12 [Example 61],< 1000 nM

# Next, values leading:
row,EC50,Structure (SMILES)
1,> 1000 nM,COc1cc(C(=O)NC[C@](O)(c2ccc(F)c(-c3cc(Cl)c(F)cc3F)n2)C2CC2)cc2cn(C3CC3)nc12 [Example 171]
2,> 1000 nM,COc1cc(C(=O)NC[C@@](O)(c2ccccc2)c2cc(C(C)(C)C(N)=O)c(F)c(-c3cc(Cl)c(F)cc3F)n2)cc2cn(C(F)F)nc12 [Example 161]
3,> 1000 nM,COc1cc(C(=O)NC[C@](O)(c2ccc(F)c(-c3cc(Cl)c(F)cc3F)n2)C2CC2)cc2cc(C)cnc12 [Example 175]
4,> 1000 nM,COc1cc(C(=O)NC[C@](O)(c2cc(C3(O)COC3)c(F)c(-c3cc(Cl)c(F)cc3F)n2)C2CC2)cc2cn(C(F)F)nc12 [Example 169]
5,> 1000 nM,COc1cc(C(=O)NC[C@](O)(c2ccc(F)c(-c3cc(Cl)c(F)cc3F)n2)C2CC2)cc2cc(Cl)c(C)nc12 [Example 176]
6,> 1000 nM,COc1cc(C(=O)NC[C@](O)(c2cc(C3(O)COC3)c(F)c(-c3cc(Cl)c(F)cc3F)n2)C2CC2)cc2cn(C3(F)CC3)nc12 [Example 168]
7,< 1000 nM,[2H]C([2H])([2H])C(O)(c1cc([C@@](O)(CNC(=O)c2cc(OC)c3nn(C4CC4)cc3c2)C2CC2)nc(-c2cc(Cl)c(F)cc2F)c1F)C([2H])([2H])[2H] [Example 186]
8,< 1000 nM,COc1cc(C(=O)NC[C@@](O)(c2ccccc2)c2cc(C(C)(C)O)cc(-c3ccc(F)c(Cl)c3Cl)n2)cc2cn(C(F)F)nc12 [Example 154]
9,< 1000 nM,COc1cc(C(=O)NC[C@@](O)(c2ccccc2)c2cc(C(C)(C)C(N)=O)c(F)c(-c3cc(Cl)c(F)cc3F)n2)cc2cn(C3CC3)nc12 [Example 160]
